# Results: patent US20250092418A1, “METHODS OF GENETICALLY ALTERING A PLANT NIN-GENE TO BE RESPONSIVE TO AUXIN” (NIAB, priority 2023, published 2025)
# Tests used:
# MtNIN = experiment: Relative expression of MtNIN in M. truncatula roots after auxin analogue treatment; type: in vivo, Medicago truncatula; settings: exogenous treatment 0.1, 1 or 10 μM for 16 hours and 2 days
# Procedure: Germinated seedlings (approx. 4 days after germination) are moved to FPmod plates supplemented with 0.1 μM, 1 μM, or 10 μM NAA, 0.8% agarose (Sigma), and adjusted to pH 7. The seedlings were maintained for 16 hours and 2 days under 16 h-day and 8 h-night cycle at 24-22° C. before harvesting them for RNA extraction.
# Total RNA was reverse-transcribed using SuperScript™ III Reverse Transcriptase (Life Technologies) and anchored dT17 primers as described in the manufacturer's protocol. About 1 μl of cDNA was used to set up real-time RT-qPCR in a […] reaction system with 2×SYBR™ Green PCR master mixes (PCR biosystems) using an ABI Proflex7 Real-Time PCR system. PCR program: 1 cycle at 50° C. for 2 min, 1 cycle at 95° C. for 5 min, and 40 cycles at 95° C. for 30 s and 60° C. for 30s. Expression data were obtained from 3 independent biological repetitions. Calculations were done using the cycle threshold method using MtEF1a, DgActin and FvHistoneH4 as the endogenous control.
# pDR5:NLS-eGFP = pDR5:NLS-eGFP expression in barley STARTS lines post auxin treatment; type: in vivo, Hordeum vulgare; settings: 50 μM 2,4D
# Procedure: Tissue culture STARTS plants were grown in rooting media for approximately 4 weeks after transfer, and barley seeds were grown on water-agar plates for seven days after germination, after which seedlings were transferred to 1% Hoagland's media plates. […] The root portion of the plates was covered with aluminum foil. The plants were maintained under a 16 h-day and 8 h-night cycle at 24-22° C. Tissue was harvested four weeks after treatment for phenotyping and RNA extraction.
# Auxin treatment was reported to induce nodule like-structures (NLS) in rice (Hiltenbrand et al., 2016). Since it was established in the strawberry system that expressing pDR5:DryasNIN could form NLS with some proto-nodule identity under the influence of auxin, lines in barley (Hordeum vulgare var Golden promise) were raised with the same cassette. To establish the efficacy of the pDR5 promoter in barely system, some transgenics were also raised with pDR5:GUS and pDR5:NLS-eGFP (FIGS. 23A-23F, 24A-24J). In comparison to overexpressing pOsUbi:GUS, pDR5:GUS expression under control condition was very weak (FIGS. 23B-23C).
# pDgNIN:GUS = experiment: GUS staining of pDgNIN:GUS hairy roots after treatment with LCO / chitin oligomer signaling molecules; type: in vivo, Datisca glomerata; settings: 24 hours post treatment with 10^−7M
# Procedure: (§1) For GUS staining the harvested roots were thoroughly cleaned in sterile water and scored under the stereo-fluorescent microscope so that only the transformed roots were harvested for the staining purpose. The roots were fixed in 90% acetone on ice for 1 hour. Subsequently, the acetone was replaced with 50 mM phosphate buffer pH7.2 (Sigma) and the roots were washed twice to remove any acetone. The roots were then moved to the staining solution containing 0.1M Phosphate buffer, 0.25 mM K3[Fe(CN)6](potassium ferricyanide), 0.25 mM K4[Fe(CN)6](potassium ferrocyanide), 0.25% (v/v) Triton X-100 and 1 mM 5-bromo-4-chloro-3-indolyl beta-D-glucuronide (X-Gluc, Thermo). The samples were vacuum infiltrated for 30 minutes and incubated at 37° C. overnight. After staining the tissues were cleared of all the staining solution and stored in 50% ethanol for imaging under the stereomicroscope DX105 F (Leica). For ruthenium red staining the staining solution was prepared (0.1% ruthenium red in sterile water) and a few microliters are added over each section and subsequently washed using sterile deionized water. For toluidine blue staining, 0.1% toluidine blue staining solution was prepared in deionized water and a few microliters are added over each section and subsequently washed using sterile deionized water. […]
# pDgNIN2:GUS = experiment: GUS staining of pDgNIN2:GUS hairy roots after treatment with LCO / chitin oligomer signaling molecules; type: in vivo, Datisca glomerata; settings: 24 hours post treatment with 10^−7M
# Procedure: as §1
# DgNIN = experiment: Relative expression of DgNIN in D. glomerata roots (real-time PCR, normalized to DgActin); type: in vivo, Datisca glomerata; settings: 10 days post treatment with 100^−6M NAA
# Procedure: (§2) Germinated seedlings (approx. 4 weeks after germination) are moved to ½MS plates supplemented with 0.5 g/L MES (Merck), 100^−6M NAA, 0.8% agarose (Sigma) and adjusted to pH 5.8. The seedlings were maintained for 10 days under a 16 h-day and 8 h-night cycle at 22-24° C. before harvesting for RNA extraction.
# (§3) Each plant root system consisting of transformed root or nodules was harvested and each individual root system formed a biological replicate; 3 or more technical replicates were prepared from each root system having a 100-150 mg sample. RNA was extracted using a modified extraction buffer containing 2% SDS (v/v), 100 mM Tris-HCl pH 8.0, 1.4M NaCl, and 20 mM EDTA. The samples were crushed with tungsten-carbide beads (Qiagen) in a mechanical pulverize (Spex Geno/Grinder®) in the presence of 12 μl/ml β-mercaptoethanol (Sigma) and 50 mg PVPP (Sigma). The powder was resuspended with the extraction buffer followed by treatment with chloroform:iso-amyl alcohol (24:1)(Melford) and chloroform (Sigma). […] The extracted RNA was quantified using a NanoDrop® (Thermo) and then treated for DNase digestion using TURBO DNA-free™ kit (Thermo) using the manufacturer protocol. […] Quantitative real-time polymerase chain reaction (qRT-PCR) was performed in technical replicates using SyGreen mix Lo-ROX (PCR Biosystems) using QuantStudio™ 7 Flex system (ABI) in a total volume of 10 μl. […]
# DgNIN2 = experiment: Relative expression of DgNIN2 in D. glomerata roots (real-time PCR, normalized to DgActin); type: in vivo, Datisca glomerata; settings: 10 days post treatment with 100^−6M NAA
# Procedure: as §2, §3
# pDR5:GUS [1] = experiment: pDR5:GUS auxin signaling readout in stable F. vesca lines; type: in vivo, Fragaria vesca; set-up: dose or concentration left out as unconfirmed
# Procedure: Tissue culture plants growing in SMR (approximately 4 weeks after transfer) were moved to ½ Hoagland's media plates supplemented with 100^−6M NAA, 0.8% agarose (Sigma). The plants were maintained for 4 weeks under a 16 h-day and 8 h-night cycle at 22-24° C. before harvesting for phenotyping and RNA extraction.
# as §1, with “(Leica).” for “(Leica). For ruthenium red staining the staining solution was prepared (0.1% ruthenium red in sterile water) and a few microliters are added over each section and subsequently washed using sterile deionized water. For toluidine blue staining, 0.1% toluidine blue staining solution was prepared in deionized water and a few microliters are added over each section and subsequently washed using sterile deionized water.”
# pDR5:GUS [2] = experiment: pDR5:GUS expression in barley STARTS lines post auxin treatment; type: in vivo, Hordeum vulgare; settings: 100 μM NAA, 3 weeks post treatment
# Procedure: as §1
Compound,activation of MtNIN expression (MtNIN),GUS staining of pDgNIN:GUS roots (pDgNIN:GUS),GUS staining of pDgNIN2:GUS roots (pDgNIN2:GUS),also measured
"O=C(O)COc1ccc(Cl)cc1Cl [2,4D, 2,4-Dichlorophenoxyacetic acid]",differential activation of MtNIN expression,,,pDR5:NLS-eGFP signal (pDR5:NLS-eGFP): eGFP localization could be seen in the nucleus
CC(=O)N[C@H]1[C@H](O[C@H]2[C@H](O)[C@@H](NC(C)=O)C(O)O[C@@H]2CO)O[C@H](CO)[C@@H](O[C@@H]2O[C@H](CO)[C@@H](O[C@@H]3O[C@H](CO)[C@@H](O)[C@H](O)[C@H]3NC(C)=O)[C@H](O)[C@H]2NC(C)=O)[C@@H]1O (stereo partly shown) [C04],,intense staining in the root vasculature and near the root tip,did not show staining,
CC(=O)N[C@H]1[C@H](O[C@H]2[C@H](O)[C@@H](NC(C)=O)[C@H](O[C@H]3[C@H](O)[C@@H](NC(C)=O)[C@H](O[C@H]4[C@H](O)[C@@H](NC(C)=O)C(O)O[C@@H]4CO)O[C@@H]3CO)O[C@@H]2CO)O[C@H](CO)[C@@H](O[C@@H]2O[C@H](CO)[C@@H](O[C@@H]3O[C@H](CO)[C@@H](O[C@@H]4O[C@H](CO)[C@@H](O[C@@H]5O[C@H](CO)[C@@H](O)[C@H](O)[C@H]5NC(C)=O)[C@H](O)[C@H]4NC(C)=O)[C@H](O)[C@H]3NC(C)=O)[C@H](O)[C@H]2NC(C)=O)[C@@H]1O (stereo partly shown) [C08],,no staining,failed to induce any NIN expression,
"O=C(O)CCCc1c[nH]c2ccccc12 [IBA, Indole-3-butyric acid]",differential activation of MtNIN expression,,,
"O=C(O)Cc1cccc2ccccc12 [NAA, 1-naphthalene acetic acid]",differential activation of MtNIN expression,,,increase in the expression of DgNIN as compared to the control treated root samples (DgNIN): ~4 fold; increase in the expression of DgNIN2 as compared to the control treated root samples (DgNIN2): ~12 fold; pDR5:GUS staining pattern (pDR5:GUS [1]; +N+P+NAA): non-specific expression throughout the root system; pDR5:GUS staining pattern (pDR5:GUS [1]; −N+P+NAA (N limiting condition)): localized GUS staining in the bump like structures; pDR5:GUS staining (pDR5:GUS [2]): GUS staining was visible in the bump-like structures
